Results reported in patent publication US11939398B2, “Modified peptides for use in treating neurodegenerative disorders” (Neuro-Bio Ltd, priority 2016, dated 2024).
“Also recorded” adds a separate entry of the source. Where a SMILES comes first, the peptide text is derived from it. [ ]: non-standard residue; d: D form. Phe(4-NH2) = Nc1ccc(C[C@H](N)C(=O)O)cc1; 2Nal = N[C@@H](Cc1ccc2ccccc2c1)C(=O)O

Tests used:
[1] = stability / degradation in rat blood; type: in vitro ADME; settings: rat blood diluted with PBS
Method: (§1) Test compounds were spiked at 10 μg/ml into either PBS or blood (Male Wistar rat or Human) diluted with PBS, and a series of samples taken according to the following scheme:
(§2) Procaine, a compound known to be unstable in blood, was included as a positive control (ran with 5-fold diluted blood only). The sampling procedure was to add an aliquot to ice-cold acetonitrile, centrifuge, and store the supernatant on dry ice until analysis. Analysis by UHPLC-TOF mass spectrometry using electrospray ionisation was performed on the same day as the incubations were performed.

[2] = test system: rat basal forebrain slices; experiment: voltage-sensitive dye imaging (VSDI) on brain slices, Example 5; type: cell-based
Method: Male Wistar rats (14 days old) were anaesthetised using isoflurane (˜15 ml, 100% w/w). Isoflurane was applied to the cotton bed at the bottom of an anaesthetic chamber (glass box 20×15×15 cm) where rats were then placed for approximately 45 s until complete anaesthesia was reached. The hind paw of each anaesthetised rat was pinched to check for the appropriate depth of anaesthesia. Upon confirmation of anaesthesia, rats were quickly decapitated, with the brain being quickly removed and immersed in ice cold oxygenated ‘slicing’ artificial cerebrospinal fluid (aCSF in mmol: 120 NaCl, 5 KCL, 20 NaHCO3, 2.4 CaCl2 2 MgSO4, 1.2 KH2PO4, 10 glucose, 6.7 HEPES salt and 3.3 HEPES acid; pH=7.1). Coronal slices (400 μm thick) were then taken from a block of brain containing the basal forebrain, namely the MS-dBB complex (between +9.20 and +9.48 mm Interaural and +0.48 and +0.2 mm Bregma, FIG. 4A) and the somatosensory barrel field cortex (SiBF, between +8.08 and +7.20 mm Interaural and −0.92 mm and −1.80 mm Bregma) (Paxinos and Watson, 1998) using a Vibratome (Leica VTi000S).
Slices were then transferred to a bubbler pot containing oxygenated aCSF at room temperature (recording aCSF in mmol: 124 NaCl, 5 KCL, 20 NaHCO3, 2.4 CaCl2 2 MgSO4, 1.3 KH2PO4, 10 glucose; pH=7.4) which was identical to that used in VSDI (voltage sensitive dye imaging) recording. Slices were then left for approximately 1-1.5 hours before preparing them for VSD staining.
Slices were placed in a dark, high humidity chamber filled with aCSF bubbled with 95% O2, 5% CO2. Once there, the dye solution (4% 0.2 mM styryl dye pyridinium 4-[2-[6-(dibutylamino)-2-napthalenyl]-ethenyl]-1-(3-sulfopropyl)hydroxide (Di-4-NEPPS), Invitrogen, Paisley, UK in 48% aCSF, 48% foetal bovine serum, 3.5% DMSO and 0.4% cremophore EL) (Tominaga et al., 2000) was applied to the slices for 20-25 minutes before being transferred back to a bubbler pot containing oxygenated aCSF kept at room temperature for 30 minutes.
When starting the VSDI recordings, slices were placed in the recording bath on a small piece of filter paper to allow the flow of oxygenated aCSF on the underside of the slice and in order to keep it alive. The slice was then weighed down by a home-made plastic grid that was placed on top of the slice. […] For the acquisition of VSD data, 2 dimensional images, equivalent to 88×60 pixels, were recorded using the MiCamo2 High Resolution camera (Brain Vision, Japan) with BV_Analyze imaging software. […] Light was generated using an Osram halogen xenophot 64634 HLX EFR Display/Optic lamp and was filtered to emit green (530±10 nm) light using a MHF-G150LR (Moritex Corporation) coupled to the MiCamo2 High resolution imaging system and filtered the emitted fluorescence through a >590 nm high pass filter. […]

PC12 cells [3] = experiment: Calcium fluorometry (Fluo-8, PNU282987-induced calcium increase) in PC12 cells; type: cell-based; settings: in conjunction with T30, PC12 cells
Method: PC12 cells were plated in 200 μl of Dulbecco's Modified Eagle's medium (DMEM) plus 2 mM of L-glutamine medium the day before the experiment in 96 well plates. On the day of the experiment, the Fluo-8 solution (Abcam) was prepared as described by the provider by adding 20 μl of Fluo-8 in the assay buffer that contains 9 ml of Hank's Balanced Salt Solution (HBSS) and 1 ml of pluronic F127 Plus. Subsequently, 100 μl of growth medium was removed and 100 μl of Fluo-8 solution were added. Treatments with T30 in conjunction with NBP14 or Tri peptides were added and incubated for 30 minutes in the incubator and 30 minutes room temperature. After 1 h, the plate was placed in the fluorescence plate reader (Fluostar, Optima, BMG Labtech, Ortenberg, Germany). Before reading the fluorescence, PNU282987 1 μM, an alpha7 specific agonist of the nicotinic receptors, was prepared and placed in the Fluostar injector. For each well, the reading was formed by a basal fluorescence reading followed by PNU282987 injection that induced an increase of calcium via nicotinic receptors.
In each of the different cell techniques, the statistics analysis was performed with the average of the percentage values of 3 or more experiments. Comparisons between multiple treatment groups and the same control were performed by one-way analysis of variance (ANOVA) and Tukey's post-hoc tests using GraphPAD Instat (GraphPAD software, San Diego, California). Statistical significance was taken at a p value<0.05.

[4] = stability / degradation in human blood; type: in vitro ADME; settings: human blood diluted with PBS
Method: as §1, §2

PC12 cells [5] = experiment: AChE activity assay (Ellman reagent) in PC12 cells treated with T30; type: cell-based; settings: combined with T30 (1 μM)
Method: AChE activity was measured using the Ellman reagent that measures the presence of thiol groups as a result of AChE activity. In the case of the G4 experiment, AChE (G4) activity was tested alone and also together with either NBP14 or Tri peptides. PC12 cells were plated the day before the experiment as for the cell viability assay. Cells were treated with T30 (1 μM) alone or combined with NBP14 or Tri peptide (0.5 μM). After treatment, supernatant (perfusate) of each treatment was collected and 25 μL from each condition were added to a new flat bottomed 96 well plate followed by the addition of 175 μl of Ellman reagent (Solution A: KH2PO4 139 mM and K2HPO4 79.66 mM, pH 7.0; solution B (substrate): Acetylthiocholine Iodide 11.5 mM; Solution C (Reagent): 5,5′-dithiobis(2-nitrobenzoic acid) 8 mM and NaHCO3 15 mM). The Ellman reagent was prepared as a mixture of the 3 solutions in a ratio 33(A):3(B):4(C). Absorbance measurements were taken for an interval of 60 minutes across experiments at 405 nm in a Vmax plate reader (Molecular devices, Wokingham, UK).
In each of the different cell techniques, the statistics analysis was performed with the average of the percentage values of 3 or more experiments. […]

α7 nicotinic-receptor = α7 nicotinic-receptor (Homo sapiens, UniProt P36544); settings: cited from earlier work
Chain of α7 nicotinic-receptor (P36544 23-502): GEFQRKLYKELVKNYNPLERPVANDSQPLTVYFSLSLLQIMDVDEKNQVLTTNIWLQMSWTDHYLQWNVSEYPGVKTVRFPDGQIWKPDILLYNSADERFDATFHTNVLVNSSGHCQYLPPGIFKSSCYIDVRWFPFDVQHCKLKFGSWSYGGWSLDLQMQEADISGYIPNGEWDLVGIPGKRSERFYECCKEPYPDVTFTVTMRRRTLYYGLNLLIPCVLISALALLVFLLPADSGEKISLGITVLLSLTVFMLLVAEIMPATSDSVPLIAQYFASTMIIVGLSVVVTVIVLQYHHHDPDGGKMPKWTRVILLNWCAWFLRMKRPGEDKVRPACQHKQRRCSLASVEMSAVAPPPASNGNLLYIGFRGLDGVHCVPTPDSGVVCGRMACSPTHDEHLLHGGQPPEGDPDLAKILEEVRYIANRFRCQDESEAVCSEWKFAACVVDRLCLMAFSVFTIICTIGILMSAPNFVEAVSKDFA

Row | Compound | stability in blood ([1]; 10 μg/ml, up to 60 min) | degradants detected ([1]; UHPLC-TOF MS) | blocking of T30-induced deviations from baseline (VSDI) ([2]; 4 μM co-perfused with T30 (2 uM)) | change in magnitude (summed fluorescence) of evoked responses, compound alone ([2]; 4 μM in perfusate, no T30) | protection against T30-induced calcium influx (PC12 cells [3]) | stability in blood ([4]; 10 μg/ml, up to 60 min) | degradants detected ([4]; UHPLC-TOF MS) | protection against T30-induced AChE activity (PC12 cells [5]) | affinity for the α7 nicotinic-receptor (α7 nicotinic-receptor) [µM]
1 | CC(=O)N[C@@H](Cc1ccc2ccccc2c1)C(=O)N[C@@H](Cc1ccc(N)cc1)C(=O)N[C@@H](Cc1c[nH]c2ccccc12)C(N)=O [Tri02, 4-((S)-2((S)-2-acetamido-3-(naphthalene-2-yl)propanamido)-3-(((S)-1-amino-3-(1H-indol-3-yl)-1-oxopropan-2-yl)amino)-3-oxopropyl)benzenaminium] (Ac-[2Nal]-[Phe(4-NH2)]-Trp-NH2) | some instability | a variety of degradants were detected | not found to protect against T30-induced deviations from baseline; also recorded: some efficacy in blocking those T30-induced deviation | recapitulates results seen with application of 4 μM NBP14; also recorded: small alterations | protects against the toxic effects of T30 | some instability | a variety of degradants were detected | protects against the toxic effects of T30 | 
2 | COc1ccc2c3c1O[C@H]1C[C@@H](O)C=C[C@@]31CCN(C)C2 [galanthamine] |  |  |  |  |  |  |  |  | 10
